These compounds were tested against T1, G1 APOL1 (Homo sapiens, UniProt O14791, I384M/S342G) (assay: Acute APOL1 Thallium Assay with Inducible Stable Clones of HEK 293 Cells). Conditions: HEK 293 inducible stable clones, G1 APOL1; read-out: Thallium Assay (IC50).
T1 construct: expressed in transfected cells
T1 sequence (O14791 28-398 S342G/I384M): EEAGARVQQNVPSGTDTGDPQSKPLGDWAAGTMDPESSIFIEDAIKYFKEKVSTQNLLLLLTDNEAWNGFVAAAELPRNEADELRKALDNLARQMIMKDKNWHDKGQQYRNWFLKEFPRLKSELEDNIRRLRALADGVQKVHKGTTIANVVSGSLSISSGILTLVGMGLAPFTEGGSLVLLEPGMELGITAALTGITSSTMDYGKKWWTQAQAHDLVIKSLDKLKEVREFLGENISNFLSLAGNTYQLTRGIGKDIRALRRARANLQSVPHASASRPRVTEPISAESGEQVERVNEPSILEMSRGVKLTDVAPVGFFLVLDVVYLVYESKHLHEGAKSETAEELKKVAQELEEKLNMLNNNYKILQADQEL
Type: cell-based
Description: Acute APOL1 Thallium Assay with Inducible Stable Clones of HEK 293 Cells
Apolipoprotein L1 (APOL1) proteins form potassium-permeable cation pores in the plasma membrane. APOL1 risk variants (G1 and G2) induce greater potassium flux than G0 in HEK293 cells. This assay exploits the permeability of thallium (Tl+) through ligand-gated potassium channels. The dye produces a bright fluorescent signal upon binding to Tl+ conducted through potassium channels. The intensity of the Tl+ signal is proportional to the number of potassium channels in the open state. Therefore, it provides a functional indication of the potassium channel activities. During the initial dye-loading step, the Tl+ indicator dye as an acetoxymethyl (AM) ester enters the cells through passive diffusion. Cytoplasm esterases cleave the AM ester and relieve its active thallium-sensitive form. The cells are then stimulated with Tl+. The increase of fluorescence in the assay represents the influx of Tl+ into the cell specifically through the potassium channel (i.e. through APOL1 pores), providing a functional measurement of potassium channel/pore activity. The Thallium assay is conducted with cells expressing G1 APOL1.
APOL1 Cell Line (HEK T-Rex Stable Inducible Cell Line) • HEK T-Rex System • Tetracycline (Tet) inducible mammalian expression system. • Stably express the Tet repressor to regulate transcription. • Expression under the full-length CMV promoter. • APOL1 stable inducible cell line Clone used: G1 DC3.25
Tissue Culture Media • Cell Culture Medium • DMEM+10% FBS+P/S+5 μg/mL blasticidin+1 μg/mL puromycin. • 500 mL DMEM+55 mL FBS+5 mL P/S+280 μL blasticidin S HCl (10 mg/mL)+56 μL puromycin (10 mg/mL). • Cell Assay Medium • DMEM with 2% FBS+penicillin/streptomycin.
Instruments and Equipment • Nuaire cell culture hood, Cat. No. 540-600 • 37° C./5% CO2 incubator link to robotic arm, Liconic: STX110 • Molecular Devices FLIPR^Tetra High throughput cellular screening system, Cat. No. FT0324, Molecular Devices • ThermoFisher MultiDrop 384, Cat. No. 5840300 • Biotek Microfill, Cat. No. ASF1000A-4145 • BioRad TC10 cell counter, Cat. No. 145-0010
Cells Scaled Up from Frozen Vials • APOL1 G1 3.25 (HEK293 T-Rex) frozen vials: 5 million cells per vial • Step 1, Day 1: Defrost frozen vial into T-225. • Step 2, Day 5: (when 85% confluent): Split one T-225 at 3×10^6 cells per flask. • Step 3, Day 8: Splits cells to set up for the assay plates as described below.
T-Rex APOL1 HEK cells are split twice per week to keep the confluence state below 85% of the culture flask surface area. Cells can be kept until passage 25. • Cell Culture Medium • DMEM high glucose+10% FBS, +P/S, +5 μg/mL blasticidin, +1 μg/mL puromycin. • 500 mL DMEM, +55 mL FBS, +5 mL P/S, +280 μL blasticidin 10 mg/mL, +56 μL Puromycin 10 mg/mL. • Assay Media • Opti-MEM reduced serum medium from Invitrogen.
Preparation of Cell Assay Plates • Culture medium is removed from the x cm^2 T-flask by aspiration. • The cell monolayer is rinsed with PBS 1× at room temperature. PBS is removed by aspiration. • Cells are trypsinized using Trypsin. • The flasks are incubated at room temperature for 2-3 minutes. • Complete DMEM medium is then added. Cell suspension is then transferred to a 50 mL Falcon polypropylene tube. • Cells are then counted using a BioRad TC10 cell counter and the required amount of cells are centrifuged at 1200 RPM for 5 minutes. Required amount is 1.3×10^6 cells/mL APOL1 T-Rex HEK cells. • The pellet is suspended in the assay medium. • Using the MultiDrop, add 20 μL to each well (corresponds to 26000 cells total per well) of a 384-well black, transparent, flat bottom Poly-D coated plate. • Tetracycline as prepared in the following section is added to the cells before plating to induce APOL1 expression. • Plates are left at room temperature for 20 to 30 minutes before incubation at 37° C. and 5% CO2. […]
For `CC1(C(=O)NCCc2c(-c3ccc(F)cc3)[nH]c3c(F)cc(F)cc23)COC1` [Compound 410], the IC50 was 0.25 to 1 µM.
In the case of `COC(=O)/C=C/c1c(-c2ccc(C#N)cc2)[nH]c2c(F)cc(F)cc12` [Compound 521, Methyl (E)-3-[2-(4-cyanophenyl)-5,7-difluoro-1H-indol-3-yl]prop-2-enoate], the IC50 is reported as > 1 µM.
For `CS(=O)(=O)NCC(=O)NCCc1c(-c2ccc(F)cc2)[nH]c2c(F)cc(F)cc12` [Compound 321], the IC50 was > 1 µM.
For `CN(CCO)C(=O)NCCc1c(-c2ccc(F)cc2)[nH]c2c(F)cc(F)cc12` [Compound 302], the IC50 was > 1 µM.
`O=C(NCCc1c(-c2ccc(F)cc2)[nH]c2c(F)cc(F)cc12)c1ccncc1` [Compound 402] was tested, and the IC50 was > 1 µM.
`O=C(NCCc1c(-c2ccc(F)cc2)[nH]c2c(F)cc(F)cc12)c1ccc[nH]1` [Compound 354] was tested, and the IC50 was > 1 µM.
In the case of `O=C(NCCc1c(-c2ccc(F)cc2)[nH]c2c(F)cc(F)cc12)C1(O)CC1` [Compound 360], the IC50 is reported as 0.25 to 1 µM.
`O=C1C[C@H](NC(=O)CCCc2c(-c3ccc(F)cc3)[nH]c3c(F)cc(F)cc23)C(=O)N1` [Compound 245] was tested, and the IC50 was > 1 µM.
For `CNC(=O)CC(=O)NCCc1c(-c2ccc(F)cc2)[nH]c2c(F)cc(F)cc12` [Compound 345], the IC50 was > 1 µM.
For `O=C(NCCc1c(-c2ccc(F)cc2)[nH]c2c(F)cc(F)cc12)[C@@H]1CCOC1` [Compound 409], the IC50 was > 1 µM.
In the case of `O=C(NCCc1c(-c2ccc(F)cc2)[nH]c2c(F)cc(F)cc12)NCC1(O)CCC1` [Compound 275], the IC50 is reported as > 1 µM.
For `O=C(Cc1c(-c2ccc(F)cc2)[nH]c2ccccc12)NCC(O)CO` (centres unmarked) [Compound 516, N-(2,3-dihydroxypropyl)-2-(2-(4-fluorophenyl)-1H-indol-3-yl)acetamide], the IC50 was > 1 µM.
With `O=C(N[C@@H]1CCNC1=O)OCCc1c(-c2ccc(F)cc2)[nH]c2c(F)cc(F)cc12` [Compound 448] the IC50 was < 0.25 µM.
For `OC1(CC#Cc2c(-c3ccc(F)cc3)[nH]c3c(F)cc(F)cc23)COC1` [Compound 524, 3-[3-[5,7-difluoro-2-(4-fluorophenyl)-1H-indol-3-yl]prop-2-ynyl]oxetan-3-ol], the IC50 was > 1 µM.
With `Cn1nccc1CNC(=O)CCCc1c(-c2ccc(F)cc2)[nH]c2c(F)cc(F)cc12` [Compound 255] the IC50 was > 1 µM.
In the case of `O=C(CCCc1c(-c2ccc(F)cc2)[nH]c2c(F)cc(F)cc12)NCC1CNC(=O)C1` (centres unmarked) [Compound 252], the IC50 is reported as > 1 µM.
Work on `NCC(=O)NCCc1c(-c2ccc(F)cc2)[nH]c2c(F)cc(F)cc12` [Compound 366] yielded an IC50 of 0.25 to 1 µM.
In the case of `C[C@@H](CO)NC(=O)N(C)CCc1c(-c2ccc(F)cc2)[nH]c2c(F)cc(F)cc12` [Compound 303], the IC50 is reported as > 1 µM.
For `O=C(N[C@@H](CO)C(F)F)OCCc1c(-c2ccc(F)cc2)[nH]c2c(F)cc(F)cc12` [Compound 441], the IC50 was < 0.25 µM.
`COCCC(=O)NCCc1c(-c2ccc(F)cc2)[nH]c2c(F)cc(F)cc12` [Compound 412] gave an IC50 of 0.25 to 1 µM.
`O=C(NCCc1c(-c2ccc(F)cc2)[nH]c2c(F)cc(F)cc12)C(O)C(F)(F)F` (centres unmarked) [Compound 327] was tested, and the IC50 was 0.25 to 1 µM.
With `CC(C)(C)OC(=O)NC1(CC(=O)NCCc2c(-c3ccc(F)cc3)[nH]c3c(F)cc(F)cc23)CC1` [Compound 312] the IC50 was > 1 µM.
In the case of `O=C1CC(C(=O)NCCc2c(-c3ccc(F)cc3)[nH]c3c(F)cc(F)cc23)CN1` (centres unmarked) [Compound 340], the IC50 is reported as > 1 µM.
Compound `CC(CO)(CO)NC(=O)CCc1c(-c2ccc(F)cc2)[nH]c2c(F)cc(Cl)cc12` [Compound 197] has an IC50 of 0.25 to 1 µM.
In the case of `O=C(NCC1(O)CCS(=O)(=O)C1)OCCc1c(-c2ccc(F)cc2)[nH]c2c(F)cc(F)cc12` (centres unmarked) [Compound 498], the IC50 is reported as > 1 µM.
In the case of `Cc1cc(F)c2[nH]c(-c3ccc(F)cc3)c(CCC(=O)N[C@H](CO)C(F)(F)F)c2c1` [Compound 224], the IC50 is reported as > 1 µM.
In the case of `Cn1cc(CNC(=O)OCCc2c(-c3ccc(F)cc3)[nH]c3c(F)cc(F)cc23)nn1` [Compound 490], the IC50 is reported as > 1 µM.
`O=C(O)CNC(=O)NCCc1c(-c2ccc(F)cc2)[nH]c2c(F)cc(F)cc12` [Compound 285] was tested, and the IC50 was > 1 µM.
With `O=C(NCCc1c(-c2ccc(F)cc2)[nH]c2c(F)cc(F)cc12)C1CC1(F)F` (centres unmarked) [Compound 404] the IC50 was 0.25 to 1 µM.
With `CC(O)CS(=O)(=O)NCCc1c(-c2ccc(F)cc2)[nH]c2c(F)cc(F)cc12` (centres unmarked) [Compound 421] the IC50 was > 1 µM.
`Cc1cnn(CC(=O)NCCc2c(-c3ccc(F)cc3)[nH]c3c(F)cc(F)cc23)c1` [Compound 379] was tested, and the IC50 was > 1 µM.
With `O=C1C[C@@H](NC(=O)CCCc2c(-c3ccc(F)cc3)[nH]c3c(F)cc(F)cc23)C(=O)N1` [Compound 242] the IC50 was > 1 µM.
For `CC(C)(C)OC(=O)N[C@@H](CO)C(=O)NCCc1c(-c2ccc(F)cc2)[nH]c2c(F)cc(F)cc12` [Compound 308], the IC50 was > 1 µM.
For `CC(CC#N)NC(=O)NCCc1c(-c2ccc(F)cc2)[nH]c2c(F)cc(F)cc12` (racemic) [Compound 301], the IC50 was < 0.25 µM.
`N#CC(NC(=O)CCc1c(-c2ccc(F)cc2)[nH]c2c(F)cc(F)cc12)C(N)=O` (centres unmarked) [Compound 127] was tested, and the IC50 was 0.25 to 1 µM.
Work on `O=C(NCCc1c(-c2ccc(F)cc2)[nH]c2c(F)cc(F)cc12)c1c[nH]cn1` [Compound 353] yielded an IC50 of 0.25 to 1 µM.
`Cn1ccnc1CCC(=O)NCCc1c(-c2ccc(F)cc2)[nH]c2c(F)cc(F)cc12` [Compound 371] was tested, and the IC50 was > 1 µM.
For `CC(C)[C@@H](CO)NC(=O)OCCc1c(-c2ccc(F)cc2)[nH]c2c(F)cc(F)cc12` [Compound 459], the IC50 was 0.25 to 1 µM.
In the case of `O=CNCCc1c(-c2ccc(F)cc2)[nH]c2c(F)cc(F)cc12` [Compound 419, N-[2-[5,7-difluoro-2-(4-fluorophenyl)-1H-indol-3-yl]ethyl]formamide], the IC50 is reported as > 1 µM.
In the case of `O=C(CCc1c(-c2ccc(F)cc2)[nH]c2c(F)cc(Cl)cc12)NC[C@@H](O)CO` [Compound 210], the IC50 is reported as > 1 µM.
With `O=C(NCCc1c(-c2ccc(F)cc2)[nH]c2c(F)cc(F)cc12)N[C@@H]1CC[C@H](O)C1` [Compound 272] the IC50 was > 1 µM.
In the case of `CC1(CO)CCN1C(=O)CCc1c(-c2ccc(F)cc2)[nH]c2c(F)cc(F)cc12` (centres unmarked) [Compound 110], the IC50 is reported as 0.25 to 1 µM.
`NC(=O)CCCc1c(-c2ccc(F)cc2)[nH]c2c(F)cc(F)cc12` [Compound 243] was tested, and the IC50 was > 1 µM.
`O=C(CCc1c(-c2ccc(F)cc2)[nH]c2c(Cl)cccc12)N[C@@H](CO)C(F)F` [Compound 231, 3-[7-chloro-2-(4-fluorophenyl)-1H-indol-3-yl]-N-[(1S)-2,2-difluoro-1-(hydroxymethyl)ethyl]propanamide] was tested, and the IC50 was < 0.25 µM.
`CC(C)(CO)C(=O)NCCc1c(-c2ccc(F)cc2)[nH]c2c(F)cc(F)cc12` [Compound 341] gave an IC50 of 0.25 to 1 µM.
For `CC(CO)NC(=O)OCCc1c(-c2ccc(F)cc2)[nH]c2c(F)cc(F)cc12` (racemic) [Compound 439], the IC50 was < 0.25 µM.
In the case of `C[C@@H](CO)NC(=O)OCCc1c(-c2ccc(F)cc2)[nH]c2c(F)cc(F)cc12` [Compound 440], the IC50 is reported as < 0.25 µM.

Source: patent publication US20230014907A1, “INHIBITORS OF APOL1 AND METHODS OF USING SAME” (Vertex Pharmaceuticals Incorporated, priority 2020, published 2023)
